Measurements taken from PubChem BioAssay (NCI).
Values joined by “and” are separate entries in the source; they are usually repeats but may differ in a detail not shown here. Identical values can stand only once.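 48-hour exposure; five concentrations; linearly interpolated endpoints. GI50: concentration for 50% inhibition of growth. TGI is the concentration that stops growth completely.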

Experiments:
Test in all cases: NCI tumour cell line growth inhibition, 48 h
A498 renal = test system: A498 renal
EKVX NSCLC = test system: EKVX NSCLC
HCC-2998 colon = test system: HCC-2998 colon
K-562 leukemia = test system: K-562 leukemia
MDA-MB-231 breast = test system: MDA-MB-231 breast
SF-268 CNS = test system: SF-268 CNS
SK-MEL-2 melanoma = test system: SK-MEL-2 melanoma
TK-10 renal = test system: TK-10 renal
UACC-257 melanoma = test system: UACC-257 melanoma
UACC-62 melanoma = test system: UACC-62 melanoma

| Compound | TGI (A498 renal) | TGI (EKVX NSCLC) | TGI (HCC-2998 colon) | TGI (K-562 leukemia) | TGI (MDA-MB-231 breast) | TGI (SF-268 CNS) | TGI (SK-MEL-2 melanoma) | TGI (TK-10 renal) | TGI (UACC-257 melanoma) | TGI (UACC-62 melanoma) | GI50 (TK-10 renal) | GI50 (UACC-257 melanoma) | GI50 (UACC-62 melanoma) | GI50 (A498 renal) | GI50 (EKVX NSCLC) | GI50 (HCC-2998 colon) | GI50 (K-562 leukemia) | GI50 (MDA-MB-231 breast) | GI50 (SF-268 CNS) | GI50 (SK-MEL-2 melanoma) |
| --- | --- | --- | --- | --- | --- | --- | --- | --- | --- | --- | --- | --- | --- | --- | --- | --- | --- | --- | --- | --- |
| C/C(=N\NC(=S)N1CCCCCC1)c1cccc2cccnc12 | 54.9 µM | > 75.3 µM | > 100 µM | > 100 µM | > 79 µM | > 100 µM | > 100 µM | > 100 µM | > 31.1 µM | 6.53 µM | – | – | – | – | – | – | – | – | – | – |
| CCc1nc(N)nc(N)c1-c1ccc(Cl)c(N=[N+]=[N-])c1 | 60.7 µM and 72.6 µM | > 100 µM and 99.8 µM | 23 µM and 30.8 µM | > 54.8 µM | > 67.6 µM and 46.5 µM | > 100 µM | 41.3 µM and 43.7 µM | > 100 µM | 40 µM and > 92.7 µM | 24.8 µM and 26.8 µM | 8.78 µM and 29.3 µM | 1.58 µM and 12.9 µM | 0.78 µM and 3.13 µM | – | – | – | – | – | – | – |
| COc1cnc2c(c1)C(=O)c1c-2n(CCCN2CCC(O)CC2)c(=O)c2cc(Cl)ccc12 | 21.8 µM | 5.85 µM | 11.1 µM | 6.34 µM | 3.12 µM | 2.34 µM | 33.4 µM | 28.7 µM | 26.2 µM | 13.7 µM | 13 µM | 12.2 µM | 0.191 µM | 0.704 µM | 1.84 µM | 1.59 µM | 1.43 µM | 1.51 µM | 0.211 µM | 17.4 µM |
| CC(=O)NC1=NC(=O)/C(=C/c2ccc(/C=C3/C(=O)N=C(NC(C)=O)N3C)cc2)N1C | > 100 µM | > 100 µM | > 100 µM | – | > 100 µM | > 100 µM | > 100 µM | > 100 µM | > 100 µM | > 100 µM | – | – | – | – | – | – | – | – | – | – |
| CC1SC2(CCCCC2)N(NC(=O)c2[nH]c3ccc(Br)cc3c2-c2ccccc2)C1=O (stereo not drawn) | > 100 µM | > 100 µM | > 100 µM | > 100 µM | 79.6 µM | > 100 µM | > 100 µM | > 100 µM | > 100 µM | > 100 µM | 26.2 µM | 23.6 µM | 9.66 µM | > 100 µM | > 100 µM | > 100 µM | 6.78 µM | 20.4 µM | 75.6 µM | > 100 µM |
| COc1cc(Cl)cc(-c2nn(-c3cccc(NC(=O)Nc4ccc(Cl)c(Cl)c4)c3)cc2-c2ccncc2)c1 | 90.9 µM | – | 36.8 µM | > 100 µM | 4.52 µM | > 100 µM | 3.74 µM | – | 5.19 µM | 16.3 µM | – | 1.84 µM | 2.4 µM | 2.52 µM | – | 3.16 µM | 1.96 µM | 1.87 µM | 3.27 µM | 1.64 µM |
| CCSC[C@@H]1C[C@](O)(c2ccc(F)cc2)[C@@H](c2ccc(F)cc2)O1 | 33.1 µM | 31.7 µM | 36.6 µM | 31.5 µM | 30.1 µM | 29.6 µM | 42 µM | 34.5 µM | 32.7 µM | 27.4 µM | 19.2 µM | 16.1 µM | 13.4 µM | 19 µM | 15.3 µM | 18.8 µM | 16 µM | 15.3 µM | 14.7 µM | 19.8 µM |
| COC(=O)[C@H](Cc1cn(C)cn1)NC(=O)[C@H](C)NC(=O)Nc1cc(C(F)(F)F)cc(C(F)(F)F)c1 | > 10 µM | – | > 10 µM | > 10 µM | > 10 µM | > 10 µM | > 10 µM | > 10 µM | > 10 µM | > 10 µM | > 10 µM | > 10 µM | > 10 µM | > 10 µM | – | > 10 µM | > 10 µM | > 10 µM | > 10 µM | > 10 µM |
| Cn1cc(C2=C(Nc3ccccc3)C(=O)NC2=O)c2ccccc21 | > 25 µM | – | > 25 µM | > 25 µM | > 25 µM | > 25 µM | > 25 µM | > 25 µM | > 25 µM | > 25 µM | > 25 µM | > 25 µM | > 25 µM | > 25 µM | – | > 25 µM | > 25 µM | > 25 µM | > 25 µM | > 25 µM |
| Cc1cc(Cl)ccc1C(=O)c1ccc2ccccc2c1C(=O)O | > 100 µM | – | > 100 µM | > 100 µM | > 100 µM | > 100 µM | > 100 µM | > 100 µM | > 100 µM | > 100 µM | – | – | – | – | – | – | – | – | – | – |
| COc1cc2c(c(OC)c1OC)-c1ccc(N=NC(N)=S)c(=O)cc1[C@@H](NC(C)=O)CC2 | 3.15 µM | > 100 µM | 1.76 µM | > 100 µM | > 27.7 µM | > 100 µM | > 100 µM | > 100 µM | > 100 µM | > 100 µM | 9.01 µM | > 100 µM | 0.646 µM | 0.477 µM | > 100 µM | 0.311 µM | 0.425 µM | 0.592 µM | 0.716 µM | 0.393 µM |
| Cc1ccc(-n2nnnc2-c2cnc(N3CCOCC3)nc2-c2cccc(C(F)(F)F)c2)cc1 | 17.1 µM | > 50 µM | 2.17 µM | > 22.6 µM | > 12.2 µM | 29.4 µM | > 50 µM | 4.56 µM | > 30.5 µM | 25.2 µM | 1.54 µM | 4.88 µM | 1.73 µM | 2.71 µM | 3.93 µM | 0.992 µM | 1.96 µM | 3.24 µM | 3 µM | > 10.8 µM |
| C[C@@H](CO)NC(=O)c1cc(-c2ccc(Cl)cc2)nn(-c2cnn(C)c2)c1=O | 62.3 µM | > 100 µM | > 100 µM | 95 µM | > 100 µM | > 100 µM | > 100 µM | 47 µM | > 100 µM | 31.7 µM | 3.12 µM | 30.6 µM | 14.5 µM | 3.01 µM | 26 µM | 23.1 µM | 26.3 µM | 51.5 µM | 25.6 µM | 59.9 µM |
| Cc1cccc2c3c(sc12)C(c1ccc(F)cc1)C(C#N)=C(N)O3 (stereo not drawn) | 0.318 µM | 17.6 µM | 9.75 µM | > 100 µM | 8.4 µM | 17.5 µM | 21.6 µM | 23 µM | 36.8 µM | 11.7 µM | 5.51 µM | 10.6 µM | 0.0433 µM | 0.0192 µM | 0.141 µM | 0.311 µM | 0.0357 µM | 0.346 µM | 0.35 µM | 1.7 µM |
